Entries after “also recorded” stand apart in the source; their conditions may differ.
Columns and labels:
[1] = test system: MCF7/vBOS cells (DSM ACC3321); test: Formation of discontinuous basolateral adherens junctions upon anti-estrogen exposure (E-Cadherin immunofluorescence); type: cell-based, human; details: for formation of discontinuous adherens junctions (E-Cadherin staining): concentration and incubation time per compound as in FIGS. 1-3
Description: The time usually required for formation of discontinuous basolateral adherens junctions will depend on the estrogen receptor binding affinity and concentration of the anti-estrogen used on the one hand and the cell used on the other hand, but a person skilled in the art will be readily capable of determining the appropriate time spans and concentration for a given anti-estrogen and cell. For example, if the cell is a cell as deposited under accession number DSM ACC3321, suitable concentration ranges and culture times for manifestation of the discontinuous basolateral adherens junctions phenotype in presence of fulvestrant, tamoxifen, ZK 164015, MPP dihydrochloride, and (Z)-4-hydroxytamoxifen, without being limited thereto, are:
MCF7/vBOS cells were grown on glass coverslips in multi-well tissue culture plates (TPP) for 24 h and then treated for at least 48 h with 0.1% EtOH (solvent control) and different concentrations (10^−11 M, 10^−10 M, 10^−9 M, 10^−8 M, 10^−7 M) of the ERα antagonist fulvestrant (Sigma-Aldrich, CAS-No. 129453-61-8). During experiments, medium was exchanged on a daily basis. All experiments were performed at 37° C. with 5% CO2 in reduced-serum medium (phenol red-free DMEM (Gibco), 5% FBS (Biochrom, S 0615, LOT1353 W), 1% glutamine, 100 μg/ml streptomycin/100 U/ml penicillin (Biochrom)).
After treatment with fulvestrant the adherens junction morphology of the cells was analysed by means of immunofluorescence microscopy. Briefly, cells were fixed with 3.7% formaldehyde in PBS for 15 min, permeabilized with 0.2% Triton X-100 in PBS for 30 min, and blocked with 5% FBS in PBS for 60 min (all steps at room temperature). Incubation with primary and secondary antibodies in PBS containing 1.5% BSA was carried out over night at 4° C. and for 1 h at room temperature, respectively. The following antibodies/dyes were used: anti-E-Cadherin (H-108, Santa Cruz); DAPI (Roche); secondary antibody conjugated to Cy3 (alternatives are, e.g.: Cy2, Alexa Fluor 488/555/647; all Invitrogen). The samples were then mounted in Dako fluorescence mounting medium (Dako) or VectaShield (Vector Labs). All images were acquired with an Axio Observer.Z1 widefield microscope equipped with an Apotome.2 device for optical sectioning using structured illumination (Zeiss). After 48 hours the fraction of cells displaying discontinuous adherens junctions was determined by CellProfiler/CellProfer-analyst software (see example 7).
In view of the results obtained with MCF7/vBOS cells upon exposure to fulvestrant the inventors speculated that a similar phenotype might be obtainable with other ERα antagonist as well. To test this hypothesis, the inventors used the ERα antagonists tamoxifen (Sigma-Aldrich, CAS-No. 10540-29-1), MPP dihydrochloride (Sigma-Aldrich, CAS-No. 911295-24-4), ZK164015 (Tocris, CAS-No. 177583-70-9), and (Z)-4-hydroxytamoxifen (Tocris, CAS-No. 68047-06-3). The same protocols as in example 2 were used with the following deviations: • Tamoxifen: Cells were grown for 24 h and then treated for 144 h with 10^−8 and 10^−6 M tamoxifen. • MPP dihydrochloride: Cells were grown for 24 h and then treated for 144 h with 10^−8 and 10^−6 M MPP dihydrochloride. • ZK164015: Cells were grown for 24 h and then treated for 48 h with 10^−9 and 10^−7 M ZK164015. • (Z)-4-hydroxytamoxifen: Cells were grown for 24 h and then treated for 72 h with 10^−9 and 10^−8 M (Z)-4-hydroxytamoxifen.
Subsequently, quantitative image analysis was performed using a pipeline that builds on the CellProfiler software (Carpenter et al., Genome Biol., 2006; 7(10):R100.) for segmentation and extraction of cellular parameters, and on the CellProfiler Analyst software (Jones et al., BMC Bioinformatics, 2008 Nov. 15; 9:482) for parameter-based classification of cells. In the segmentation process, primary objects (nuclei) were identified from DAPI staining by global thresholding using Otsu's method. […]

[2] = test system: MCF-7/vBOS breast cancer cells; test: Cell motility by manual tracking in confluent monolayer after scratch; type: cell-based, human
Description: FIG. 10 illustrates that inhibition of ERα signaling increases tissue stability by modulating cell mechanics and cell motility. (A) Quantification of cell stiffness (Apparent elastic (Young's) modulus) by atomic force microscopy (AFM) indentation measurements on cells treated with fulvestrant for 48 hours (ERepl.1=0.7141±0.1193 kPa; ERepl.2=0.651±0.1407 kPa; ERepl.3=0.5938±0.1564 kPa; mean±s.d.) compared to solvent control cells (, ERepl.1=0.4841±0.1194 kPa; ERepl.2=0.4088±0.1513 kPa; ERepl.3=0.4660±0.1189 kPa). Biological replicates, n=3; 50-60 cells per condition. Boxes, 25th, 50th (median), and 75th percentiles. Whiskers, 10th and 90th percentiles. Cross, mean for each group. Statistical testing, Mann-Whitney tests; **, p values<0.01. (B) Quantification of cell motility (velocity) by manual tracking of cells treated with fulvestrant for 48 hours (VRepl.1=0.0613±0.0176 μm/min; VRepl.2=0.0553±0.0157 μm/min; VRepl.3=0.051±0.014 μm/min; mean±s.d.) compared to solvent control cells (VRepl.1=0.113±0.0237 μm/min; VRepl.2=0.0757±0.023 μm/min; VRepl.3=0.0827±0.0174 μm/min). Biological replicates, n=3; 3 fields with 10 cells each per replicate and condition were imaged every 10 minutes over the course of 16 h. Boxes, 25th, 50th (median), and 75th percentiles. Whiskers, 10th and 90th percentiles. Cross, mean for each group. Statistical testing, Mann-Whitney tests; **, p values<0.01.
Given that anti-estrogens increase adherens junction stability and cell rigidity, the inventors asked whether cell motility was likewise affected.

[3] = cell as deposited under DSM ACC3321

For C[C@]12CC[C@@H]3c4ccc(O)cc4C[C@@H](CCCCCCCCC[S+]([O-])CCCC(F)(F)C(F)(F)F)[C@H]3[C@@H]1CC[C@@H]2O (stereo partly drawn) [Fulvestrant], the “activity in this assay relative to tamoxifen, ZK164015, MPP or (Z)-4-hydroxytamoxifen” value [1] was “more active”, the “time after treatment within which discontinuous adherence junctions form” value [1] was “two” and the “time within which discontinuous basolateral adherens junctions have stably formed” value [1] was 28 to 48 h. For the same compound, the “stability of discontinuous basolateral adherens junctions without adding additional anti-estrogens” value ([1]; after stable formation) was ≥ 72 h, the “Concentration (M) suitable for manifestation of the discontinuous basolateral adherens junctions phenotype” value [1, 3] was 10^−9-10^−7 M and the “Culture time (h) typically required for formation of discontinuous basolateral adherens junctions” value [1, 3] was 24 to 96 h. For the same compound, the “formation of discontinuous adherens junctions (E-Cadherin staining)” value [1] was “triggers the formation of discontinuous adherence junctions”, the “formation of discontinuous adherens junctions (E-Cadherin staining)” value ([1]; listed as fulvestrant) was “formation of discontinuous adherens junctions; also recorded: morphology changes” and the “fraction of cells with continuous / discontinuous adherens junctions (CellProfiler quantification)” value ([1]; different concentrations, 48 hours) was “fraction of cells with continuous adherens junctions decreased while the fraction of cells with discontinuous adherens junctions increased”. The “minimal concentration for appearance of discontinuous adherens junctions” value ([1]; treatment for 48 hours, 10^−11 to 10^−7 M tested) was 10^−9 M, the “cell motility (velocity), Repl.1” value ([2]; treated 48 hours, mean±s.d., replicate 1) was 0.0613±0.0176 μm/min and the “cell motility (velocity), Repl.2” value ([2]; treated 48 hours, mean±s.d., replicate 2) was 0.0553±0.0157 μm/min. The “cell motility (velocity), Repl.3” value ([2]; treated 48 hours, mean±s.d., replicate 3) was 0.051±0.014 μm/min, the velocity of cells ([2]; vs solvent control) was “significantly reduced” and the “length of cell trajectories” value ([2]; vs solvent control, data not shown) was “significantly reduced”.

Source: patent publication US20210055311A1, “SCREENING METHOD FOR ESTROGENIC AND ANTI-ESTROGENIC ACTIVITY” (BUNDESINSTITUT FÜR RISIKOBEWERTUNG, priority 2018, published 2021)
